This passage reports TGI and GI50 results from PubChem BioAssay (NCI).

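96-well plates; 48 h exposure; 5 concentrations. Endpoints by linear interpolation between flanking doses. Not reached: highest tested concentration assigned. GI50 is the concentration that inhibits growth by half. TGI: concentration producing complete growth inhibition.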

Some test systems named below: A549 NSCLC; SK-OV-3 ovarian; K-562 leukemia; NCI-H460 lung; BT-549 breast; A498 renal; SF-295 CNS; EKVX NSCLC; NCI/ADR-RES ovarian; HCT-116 colon.
Assay in all cases: DTP human tumour cell line panel, 48 h

Turning to `Cc1cc(=O)c2cc(N=Cc3ccc([N+](=O)[O-])o3)ccc2o1`, the TGI in the assay on A549 NSCLC, in the assay with SK-OV-3 ovarian, in the assay on K-562 leukemia, with NCI-H460 lung, in the assay with BT-549 breast and with A498 renal was greater than 100 µM each time. For the same compound, the total growth inhibition concentration (TGI) with SF-295 CNS, in the assay on EKVX NSCLC, in the assay with NCI/ADR-RES ovarian and in the assay with HCT-116 colon was greater than 100 µM in each case.
With `O=S1(=O)N(Cc2ccccc2)[C@@H](Cc2ccccc2)C2O[C@H]2[C@H](Cc2ccccc2)N1Cc1ccccc1` (stereo not given in full), the GI50 – broadly, the concentration at which growth is held to half of that of the control – with A549 NSCLC was 3.78 µM; in the assay with SK-OV-3 ovarian, greater than 7500 nM; with K-562 leukemia it was 3340 nM; with NCI-H460 lung it was 2530 nM; with BT-549 breast it was 4.09 µM; in the assay with A498 renal, greater than 7.5 µM. Besides, the GI50 with SF-295 CNS was 1800 nM; in the assay on EKVX NSCLC, 6.55 µM; in the assay on NCI/ADR-RES ovarian it was 5.23 µM; with HCT-116 colon, 844 nM. The TGI in the assay with A549 NSCLC, in the assay on SK-OV-3 ovarian, with K-562 leukemia, with NCI-H460 lung, in the assay with BT-549 breast and with A498 renal was greater than 7.5 µM in each case. Further, the TGI with SF-295 CNS, with EKVX NSCLC, in the assay with NCI/ADR-RES ovarian and in the assay on HCT-116 colon was greater than 7.5 µM each time.
For the compound `CCON=C1C(C)(C)C(C)(C)C(C)(C)C1(C)C`, the TGI in the assay on A549 NSCLC, in the assay on SK-OV-3 ovarian, with K-562 leukemia, in the assay on NCI-H460 lung, in the assay with BT-549 breast and in the assay on A498 renal was greater than 100 µM throughout. Besides, the TGI in the assay with SF-295 CNS, with EKVX NSCLC, in the assay on NCI/ADR-RES ovarian and in the assay with HCT-116 colon was greater than 100 µM each time.
On to `CCCCCCCCCCCCCCCC(=O)OCC1OC(n2cnc3c(=S)nc(N)[nH]c32)C(OC(=O)CCCCCCCCCCCCCCC)C1OC(=O)CCCCCCCCCCCCCCC` (stereo not given), for which the GI50 with A549 NSCLC is greater than 37.2 µM; in the assay with SK-OV-3 ovarian, 1550 nM; in the assay on K-562 leukemia, 2050 nM; in the assay with NCI-H460 lung it was 2800 nM; in the assay with BT-549 breast, greater than 50 µM; in the assay with A498 renal, greater than 25.1 µM. The GI50 with SF-295 CNS is 1630 nM; with EKVX NSCLC, 6.15 µM; in the assay with NCI/ADR-RES ovarian, 4.46 µM; in the assay on HCT-116 colon, 1800 nM. In addition, the concentration for total growth inhibition (TGI) (in general, the concentration giving total growth inhibition) in the assay on A549 NSCLC was greater than 50 µM; in the assay with SK-OV-3 ovarian it was greater than 27.8 µM; in the assay with K-562 leukemia, greater than 50 µM; in the assay with NCI-H460 lung it was greater than 22.6 µM; with BT-549 breast, greater than 50 µM; in the assay with A498 renal it was greater than 50 µM. Besides, the TGI with SF-295 CNS was 24.4 µM; in the assay with EKVX NSCLC, greater than 50 µM; in the assay with NCI/ADR-RES ovarian, greater than 50 µM; with HCT-116 colon it was greater than 50 µM.
Turning to `C[C@@H]1COCCN1c1nc(-c2cnc(N)cc2C(F)F)nc(N2[C@H](C)COC[C@@H]2C)n1`, the 50% growth inhibitory concentration (GI50) in the assay on A549 NSCLC was 0.235 µM; in the assay with SK-OV-3 ovarian, 166 nM; in the assay on K-562 leukemia it was 379 nM; in the assay on NCI-H460 lung, 179 nM; with BT-549 breast it was 0.144 µM; with A498 renal it was 0.0507 µM. The GI50 in the assay with SF-295 CNS was 116 nM; in the assay on EKVX NSCLC, 0.21 µM; in the assay on NCI/ADR-RES ovarian it was 0.4 µM; in the assay with HCT-116 colon it was 485 nM. Besides, the TGI in the assay with A549 NSCLC stood at 12.1 µM; in the assay on SK-OV-3 ovarian, 1.34 µM; in the assay with K-562 leukemia, 17.4 µM; in the assay on NCI-H460 lung, 12.1 µM; in the assay on BT-549 breast, 1.75 µM; in the assay with A498 renal it was 0.345 µM. In addition, the TGI in the assay with SF-295 CNS turned out to be 1.69 µM; in the assay with EKVX NSCLC, 5.77 µM; in the assay with NCI/ADR-RES ovarian it was 15.1 µM; in the assay on HCT-116 colon, 14.5 µM.
Turning to `O=c1[nH]cnc2c1nnn2C1OC(CO)C(O)C1O` (stereo not given), the GI50 in the assay on A549 NSCLC was 29.1 µM; in the assay with SK-OV-3 ovarian, 375 nM; in the assay with K-562 leukemia, 3970 nM; with NCI-H460 lung it was 1110 nM; in the assay with BT-549 breast, 7.77 µM; in the assay with A498 renal it was 5 µM. Besides, the GI50 in the assay with SF-295 CNS is 1710 nM; in the assay with EKVX NSCLC it was 60.4 µM; with NCI/ADR-RES ovarian, 0.835 µM; in the assay on HCT-116 colon, 3880 nM. The TGI in the assay with A549 NSCLC, in the assay with SK-OV-3 ovarian, in the assay on K-562 leukemia, with NCI-H460 lung, in the assay with BT-549 breast and with A498 renal was greater than 100 µM each time. For the same compound, the TGI in the assay on SF-295 CNS is greater than 65.7 µM; with EKVX NSCLC it was greater than 100 µM; with NCI/ADR-RES ovarian it was greater than 31.4 µM; with HCT-116 colon, greater than 100 µM.
Regarding `C=C1C(=O)O[C@H]2[C@H]1CC/C(CNC(=O)/C=C/c1cccc(OC)c1)=C\CC[C@@]1(C)O[C@@H]21`, the GI50 in the assay with A549 NSCLC is 5.11 µM; in the assay on SK-OV-3 ovarian, 11200 nM; in the assay on K-562 leukemia it was 1310 nM; in the assay on NCI-H460 lung it was 2510 nM; in the assay with BT-549 breast, 1.57 µM; with A498 renal, 1.82 µM. In addition, the GI50 in the assay on SF-295 CNS was 5540 nM; with EKVX NSCLC, 1.85 µM; in the assay on NCI/ADR-RES ovarian it was 3.79 µM; in the assay with HCT-116 colon, 545 nM. Moreover, the concentration for total growth inhibition (TGI) in the assay with A549 NSCLC amounted to 20.3 µM; with SK-OV-3 ovarian, 23.3 µM; in the assay on K-562 leukemia, 18.6 µM; with NCI-H460 lung it was 7.05 µM; in the assay on BT-549 breast it was 3.66 µM; in the assay with A498 renal, 5.85 µM. Besides, the TGI was 19.3 µM in the assay on SF-295 CNS, 5.62 µM in the assay with EKVX NSCLC, 17.8 µM with NCI/ADR-RES ovarian and 1.94 µM with HCT-116 colon.
For `CC(=N\O)/C(C)=N/O.CC(=N\O)/C(C)=N/O.CC(=N\O)/C(C)=N/O.CC(=N\O)/C(C)=N/O.[Cu].[Cu]`, the GI50 in the assay with A549 NSCLC was 23 µM; in the assay on SK-OV-3 ovarian it was 18600 nM; in the assay with K-562 leukemia, 34300 nM; in the assay on NCI-H460 lung, 20400 nM; in the assay with BT-549 breast, 19 µM; with A498 renal it was 24.4 µM. For the same compound, the GI50 with SF-295 CNS is 19900 nM; with EKVX NSCLC, 19.4 µM; in the assay on NCI/ADR-RES ovarian it was 23.9 µM; in the assay on HCT-116 colon, 19200 nM. Further, the TGI is 48.5 µM in the assay on A549 NSCLC; 34.5 µM in the assay on SK-OV-3 ovarian; 91.9 µM in the assay on K-562 leukemia; 38.5 µM in the assay with NCI-H460 lung; 33.4 µM with BT-549 breast; 39.1 µM in the assay with A498 renal. The TGI in the assay with SF-295 CNS worked out at 37.9 µM; with EKVX NSCLC, 38.2 µM; in the assay with NCI/ADR-RES ovarian it was 59.2 µM; with HCT-116 colon it was 35.6 µM.
